This passage reports GI50 and TGI results from PubChem BioAssay (NCI).

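Briefly, cells in 96-well plates were exposed to five compound concentrations for 48 h, and endpoints were estimated by linear interpolation. GI50: concentration for 50% inhibition of growth. TGI is the concentration that stops growth completely.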

Test systems include OVCAR-5 ovarian; SK-OV-3 ovarian; SF-539 CNS; BT-549 breast; MDA-MB-435; SNB-75 CNS; KM12 colon; TK-10 renal; CCRF-CEM leukemia; HCC-2998 colon.
Common to all, as to experiment: growth of human tumour cells (NCI), 48 h

Regarding `Cn1ncc(-c2ccc3c(=O)[nH]nc(CN)c3c2)c1-c1c(F)cc2ccccc2c1C#N`, the GI50 is 11.3 µM in the assay with OVCAR-5 ovarian; 13.6 µM in the assay on SK-OV-3 ovarian; 7.6 µM with SF-539 CNS; 7.15 µM in the assay on BT-549 breast; 3.72 µM in the assay on MDA-MB-435; 4.44 µM in the assay with SNB-75 CNS. Besides, the GI50 is 5 µM in the assay on KM12 colon, 10.7 µM with TK-10 renal, 10.7 µM with CCRF-CEM leukemia and 8.63 µM in the assay with HCC-2998 colon. Further, the TGI stood at 29.4 µM in the assay on OVCAR-5 ovarian; 26.8 µM in the assay on SK-OV-3 ovarian; 20.8 µM in the assay with SF-539 CNS; 20.2 µM with BT-549 breast; 14.5 µM in the assay on MDA-MB-435; 19.5 µM with SNB-75 CNS. Further, the TGI is 17.4 µM in the assay on KM12 colon, 24.1 µM in the assay with TK-10 renal, 57.3 µM with CCRF-CEM leukemia and 20.8 µM with HCC-2998 colon.
With `COc1ccc2c(c1)CC[C@@H]1[C@@H]2CC[C@]2(C)C=C(/C=C/C(=O)c3ccccc3)C[C@@H]12`, the GI50 in the assay on OVCAR-5 ovarian is 16.5 µM; with SK-OV-3 ovarian it was 20.8 µM; in the assay on SF-539 CNS it was 17.4 µM; in the assay on BT-549 breast, 17.3 µM; in the assay on MDA-MB-435, 18.4 µM; in the assay with SNB-75 CNS, 12.2 µM. In addition, the GI50 with KM12 colon is 17.7 µM; in the assay with TK-10 renal, 21.3 µM; with CCRF-CEM leukemia it was 32.6 µM; in the assay with HCC-2998 colon, 16.2 µM. In addition, the TGI with OVCAR-5 ovarian is 30.7 µM; in the assay with SK-OV-3 ovarian, 38.9 µM; with SF-539 CNS it was 32.4 µM; with BT-549 breast, 32.7 µM; in the assay with MDA-MB-435, 36 µM; in the assay on SNB-75 CNS, 25.2 µM. For the same compound, the TGI is 39.6 µM in the assay with KM12 colon, 39.3 µM in the assay with TK-10 renal, 84.7 µM with CCRF-CEM leukemia and 31.2 µM in the assay on HCC-2998 colon.
Consider `Nc1c(C(=O)Nc2cccc(Br)c2)sc2nc3c(cc12)C(O)CCC3` (centres undefined), for which the GI50 is 3.37 µM in the assay on OVCAR-5 ovarian; 0.57 µM with SK-OV-3 ovarian; 0.337 µM with SF-539 CNS; 0.972 µM in the assay on BT-549 breast; 0.115 µM in the assay with MDA-MB-435; 0.359 µM in the assay with SNB-75 CNS. Moreover, the GI50 with KM12 colon is 0.399 µM; in the assay with TK-10 renal, 14.2 µM; in the assay with CCRF-CEM leukemia, 0.357 µM; in the assay with HCC-2998 colon, 1.61 µM. In addition, the TGI in the assay on OVCAR-5 ovarian is 60 µM; with SK-OV-3 ovarian, 40.8 µM; with SF-539 CNS it was 2.14 µM; in the assay on BT-549 breast, greater than 75.3 µM; in the assay with MDA-MB-435 it was 0.35 µM; with SNB-75 CNS, 17.5 µM. The TGI is greater than 51 µM in the assay on KM12 colon, 51.6 µM in the assay with TK-10 renal, greater than 74.9 µM with CCRF-CEM leukemia and 50.2 µM with HCC-2998 colon.
As to `Cc1sc2ncn(Cc3ccc(Cl)c(Cl)c3)c(=O)c2c1C`, the GI50 in the assay with OVCAR-5 ovarian is 21.6 µM; with SK-OV-3 ovarian it was 46.8 µM; with SF-539 CNS, 37 µM; in the assay on BT-549 breast it was 58.9 µM; in the assay with MDA-MB-435, 8.72 µM; in the assay on SNB-75 CNS, 29.3 µM. In addition, the GI50 in the assay with KM12 colon was 2.44 µM; in the assay on TK-10 renal, 1.81 µM; in the assay with CCRF-CEM leukemia it was 27.7 µM; in the assay with HCC-2998 colon it was 7.39 µM. Also, the TGI in the assay on OVCAR-5 ovarian was 79.7 µM; in the assay with SK-OV-3 ovarian, greater than 100 µM; in the assay on SF-539 CNS, greater than 100 µM; with BT-549 breast, greater than 100 µM; with MDA-MB-435, greater than 100 µM; in the assay on SNB-75 CNS it was greater than 100 µM. Moreover, the TGI was 11.7 µM in the assay with KM12 colon, 7.91 µM in the assay on TK-10 renal, greater than 100 µM in the assay on CCRF-CEM leukemia and 30.1 µM in the assay on HCC-2998 colon.
Regarding `O=c1c2c3c(sc2n2c(-c4ccc(Br)cc4)nnc2n1Cc1ccccc1)CCCC3`, the GI50 with OVCAR-5 ovarian is 9.1 µM; in the assay on SK-OV-3 ovarian, 5.88 µM; with SF-539 CNS it was 11.9 µM; with BT-549 breast it was 6.04 µM; with MDA-MB-435 it was 14.2 µM; in the assay on SNB-75 CNS, 7.99 µM. The GI50 in the assay on KM12 colon was 10.2 µM; in the assay with TK-10 renal, 7.94 µM; in the assay on CCRF-CEM leukemia it was 2.98 µM; in the assay with HCC-2998 colon it was 3.25 µM. Besides, the TGI in the assay on OVCAR-5 ovarian amounted to 24.8 µM; in the assay on SK-OV-3 ovarian, 18.8 µM; in the assay on SF-539 CNS it was 32.3 µM; in the assay on BT-549 breast, 19.8 µM; in the assay on MDA-MB-435, 35.3 µM; with SNB-75 CNS, 22.1 µM. The TGI in the assay with KM12 colon worked out at 24.7 µM; in the assay with TK-10 renal it was 21.8 µM; with CCRF-CEM leukemia it was 29.2 µM; with HCC-2998 colon it was 13.4 µM.
Take `COC(=O)[C@]12CC[C@@H](C)[C@H](C)[C@@H]1C1=CC[C@@H]3[C@@]4(C)CC(=O)[C@H](OC(=O)c5ccco5)[C@@]5(C)COC(=C45)C[C@@]3(C)[C@]1(C)CC2`: the GI50 in the assay on OVCAR-5 ovarian is greater than 100 µM; with SK-OV-3 ovarian, 4.67 µM; in the assay with SF-539 CNS, 7.56 µM; in the assay with BT-549 breast it was 2.91 µM; in the assay on MDA-MB-435 it was 0.763 µM; in the assay with SNB-75 CNS it was 6.3 µM. Further, the GI50 in the assay with KM12 colon was 2.22 µM; with TK-10 renal it was 30.8 µM; in the assay on CCRF-CEM leukemia, 0.767 µM. Besides, the TGI in the assay with OVCAR-5 ovarian, in the assay on SK-OV-3 ovarian, with SF-539 CNS, with BT-549 breast, in the assay with MDA-MB-435 and in the assay with SNB-75 CNS was greater than 100 µM each time. The TGI in the assay with KM12 colon, in the assay with TK-10 renal, in the assay on CCRF-CEM leukemia and in the assay with HCC-2998 colon was greater than 100 µM throughout.
As for `CC(=O)N1CCN(CCOc2ccc(C3CCN(C4=Nn5c(nnc5C(F)(F)F)CC4)CC3)cc2)CC1`, the GI50 with OVCAR-5 ovarian was 89.4 µM; in the assay with SK-OV-3 ovarian, 21.1 µM; with SF-539 CNS it was 22.5 µM; in the assay with BT-549 breast, 26.2 µM; in the assay with MDA-MB-435, 10.2 µM; with SNB-75 CNS, 3.12 µM. For the same compound, the GI50 with KM12 colon is 31.5 µM; in the assay on TK-10 renal it was 7.31 µM; in the assay with CCRF-CEM leukemia, 20.4 µM; in the assay with HCC-2998 colon, 21.6 µM. Moreover, the TGI in the assay with OVCAR-5 ovarian, with SK-OV-3 ovarian, in the assay with SF-539 CNS, in the assay on BT-549 breast, in the assay on MDA-MB-435 and with SNB-75 CNS was greater than 100 µM throughout. The TGI in the assay with KM12 colon, in the assay with TK-10 renal, in the assay with CCRF-CEM leukemia and with HCC-2998 colon was greater than 100 µM in each case.
Consider `CC1(C)[C@@H](OC(N)=O)C=C[C@]2(C=O)[C@H]3CC[C@]4(C)[C@@H](c5ccc(=O)oc5)[C@@H](Cl)C[C@]4(O)C3=CC[C@@H]12`, for which the GI50 is 0.00581 µM in the assay with OVCAR-5 ovarian; 0.00653 µM with SK-OV-3 ovarian; 0.00442 µM in the assay on SF-539 CNS; 0.00491 µM in the assay on BT-549 breast; 0.006 µM with MDA-MB-435; 0.00407 µM in the assay with SNB-75 CNS. Further, the GI50 in the assay on KM12 colon is 0.00743 µM; in the assay on TK-10 renal, 0.00527 µM; with CCRF-CEM leukemia it was 0.00384 µM; in the assay with HCC-2998 colon, 0.0081 µM. The TGI in the assay with OVCAR-5 ovarian turned out to be 0.0135 µM; in the assay on SK-OV-3 ovarian, 0.0194 µM; in the assay on SF-539 CNS it was 0.00848 µM; in the assay on BT-549 breast, 0.0106 µM; with MDA-MB-435, 0.0141 µM; in the assay with SNB-75 CNS, 0.00932 µM. Moreover, the TGI is 0.0238 µM in the assay with KM12 colon, 0.0157 µM in the assay on TK-10 renal, 0.0117 µM with CCRF-CEM leukemia and 0.0304 µM in the assay on HCC-2998 colon.
For the compound `OC(COc1cccc2ccccc12)CN1CCN(c2ccccc2Cl)CC1` (centres undefined), the GI50 is 11.5 µM in the assay on OVCAR-5 ovarian; 16.8 µM in the assay on SK-OV-3 ovarian; 16.5 µM in the assay with SF-539 CNS; 12.9 µM in the assay on BT-549 breast; 14.5 µM in the assay with MDA-MB-435; 11.2 µM with SNB-75 CNS. The GI50 with KM12 colon is 11.8 µM; in the assay on TK-10 renal it was 5.58 µM; in the assay on CCRF-CEM leukemia, 11.4 µM; with HCC-2998 colon, 14.8 µM. In addition, the TGI is 24.1 µM with OVCAR-5 ovarian; 37.8 µM in the assay on SK-OV-3 ovarian; 32.8 µM with SF-539 CNS; 26.3 µM with BT-549 breast; 30.4 µM in the assay with MDA-MB-435; 24.7 µM in the assay with SNB-75 CNS. In addition, the TGI was 25.9 µM in the assay with KM12 colon, 17.1 µM with TK-10 renal, 69.1 µM in the assay on CCRF-CEM leukemia and 29.3 µM in the assay with HCC-2998 colon.
Regarding `COc1cccc(C2=C(c3cn(C)c4cccc(OC)c34)C(=O)NC2=O)c1`, the GI50 in the assay on OVCAR-5 ovarian is greater than 23.5 µM; with SK-OV-3 ovarian it was 11.6 µM; with SF-539 CNS it was 6.58 µM; with BT-549 breast it was 12.9 µM; with MDA-MB-435 it was 0.832 µM; in the assay with SNB-75 CNS, 4.94 µM. In addition, the GI50 is 6.01 µM with KM12 colon, 15.3 µM in the assay with TK-10 renal, 10.4 µM with CCRF-CEM leukemia and greater than 25 µM with HCC-2998 colon. The TGI was greater than 25 µM in the assay with OVCAR-5 ovarian; greater than 25 µM in the assay with SK-OV-3 ovarian; 18.6 µM in the assay with SF-539 CNS; greater than 25 µM in the assay with BT-549 breast; greater than 9.17 µM in the assay with MDA-MB-435; 24.5 µM in the assay on SNB-75 CNS. The TGI in the assay with KM12 colon, in the assay on TK-10 renal, in the assay with CCRF-CEM leukemia and in the assay on HCC-2998 colon was greater than 25 µM throughout.
For the compound `O=[As]c1ccc(C(=O)c2ccc(Oc3ccccc3)cc2)cc1` (centres undefined), the GI50 in the assay with OVCAR-5 ovarian is 0.129 µM; in the assay with SK-OV-3 ovarian, 0.12 µM; with SF-539 CNS, 0.066 µM; in the assay with BT-549 breast it was 0.135 µM; in the assay with MDA-MB-435, 0.0396 µM; in the assay on SNB-75 CNS it was 0.0366 µM. In addition, the GI50 was 0.0532 µM with KM12 colon, 0.063 µM with TK-10 renal, 0.0191 µM in the assay on CCRF-CEM leukemia and 0.0727 µM in the assay with HCC-2998 colon. Besides, the TGI in the assay on OVCAR-5 ovarian worked out at 0.264 µM; in the assay on SK-OV-3 ovarian, 0.249 µM; with SF-539 CNS, 0.218 µM; with BT-549 breast it was 0.278 µM; with MDA-MB-435, 0.176 µM; in the assay on SNB-75 CNS it was 0.15 µM. Moreover, the TGI with KM12 colon stood at 0.177 µM; with TK-10 renal, 0.19 µM; in the assay with CCRF-CEM leukemia it was 0.155 µM; in the assay on HCC-2998 colon, 0.213 µM.
